Columns and labels:
Assay type in all cases: in vivo
Tomato moths [1] = experiment: Potter tower spray on tomato moths, knockdown and mortality
[2] = test system: red spider mites, Tetranychus urticae; experiment: Potter tower spray on red spider mites, knockdown and mortality; details: Spider mites
[3] = test system: Cabbage moth, Mamestra brassicae; experiment: Potter tower spray on cabbage moth larvae, knockdown and mortality; details: Cabbage moths
From the text: The compounds were screened for insecticidal efficacy against aphids, Myzus persicae, Cabbage moth, Mamestra brassicae, diamond black moths, Plutella xylostella, red spider mites, Tetranychus urticae, whitefly, Trialeurodes vaporariorum, in terms of knockdown and mortality.
Myzus persicae, Cabbage moth, Mamestra brassicae, diamond back moths, Plutella xylostella, red spider mites, Tetranychus urticae, whitefly, Trialeurodes vaporariorum, were obtained from specified laboratory cultures. Mixed sex and age aphids and mites, moth larvae and whitefly scale infested leaves were used in the experiments. Environmental conditions were closely monitored and recorded and were within the optimal range of the target species.
(§1) The compounds were screened at a range of five concentrations, diluted in DMSO. Some of the compounds were screened against aphids, whitefly and red spider mites and other compounds were screened against cabbage moth, and diamond black moths. A carrier only and an untreated control will also be conducted. Treatments were applied directly onto the insects within Petri dishes, using a potter tower.
(§2) Twenty mites and ten aphids, scales and moth larvae were placed within a Petri dish, lined with a suitable leaf disc on a damp cotton wool pad. Scales were already on leaves. The Petri dishes were then sprayed using a potter tower. The number of knocked down and anthropods were assessed at 24 and 48 hours post treatment. Five replicates were be performed for each treatment, for each species.

aphids, Myzus persicae = experiment: Potter tower spray on aphids, knockdown and mortality; details: Aphids
Outline: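 Ten aphids (mixed sex and age) per Petri dish on a leaf disc were sprayed by Potter tower with compounds at five concentrations in DMSO. Knockdown and mortality were scored at 24 and 48 hours, five replicates per treatment, alongside carrier-only and untreated controls.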

Tomato moths [4] = experiment: Potter tower spray on tomato moths, knockdown and mortality; remark: listed apart in the source
From the text: as §1, §2

CC(c1ccc(C(F)(F)F)nc1)S(C)(=O)=NC#N (stereo not shown) [Compound 11, N-[Methyl-oxo-[1-[6-(trifluoromethyl)-3-pyridyl]ethyl]-λ^6-sulfanylidene]cyanamide, reference compound]
percentage control (Tomato moths [1]; 12.5 g/ha, 48 h): E (A percentage control of from 1 to 19 is indicated by the letter E) | percentage control (Tomato moths [1]; 100 g/ha, 24 h): E (A percentage control of from 1 to 19 is indicated by the letter E) | percentage control ([2]; 12.5 g/ha, 24 h): E (A percentage control of from 1 to 19 is indicated by the letter E) | percentage control ([2]; 12.5 g/ha, 48 h): D (A percentage control of from 20 to 39 is indicated by the letter D) | percentage control ([2]; 25 g/ha, 24 h): E (A percentage control of from 1 to 19 is indicated by the letter E) | percentage control ([2]; 25 g/ha, 48 h): E (A percentage control of from 1 to 19 is indicated by the letter E) | percentage control ([2]; 50 g/ha, 24 h): D (A percentage control of from 20 to 39 is indicated by the letter D) | percentage control ([2]; 50 g/ha, 48 h): D (A percentage control of from 20 to 39 is indicated by the letter D) | percentage control ([2]; 100 g/ha, 24 h): D (A percentage control of from 20 to 39 is indicated by the letter D) | percentage control ([2]; 100 g/ha, 48 h): D (A percentage control of from 20 to 39 is indicated by the letter D) | percentage control ([2]; 200 g/ha, 24 h): C (A percentage control of from 40 to 59 is indicated by the letter C) | percentage control ([2]; 200 g/ha, 48 h): C (A percentage control of from 40 to 59 is indicated by the letter C) | percentage control ([3]; 12.5 g/ha, 24 h): E (A percentage control of from 1 to 19 is indicated by the letter E) | percentage control ([3]; 12.5 g/ha, 48 h): E (A percentage control of from 1 to 19 is indicated by the letter E) | percentage control ([3]; 25 g/ha, 24 h): E (A percentage control of from 1 to 19 is indicated by the letter E) | percentage control ([3]; 25 g/ha, 48 h): E (A percentage control of from 1 to 19 is indicated by the letter E) | percentage control ([3]; 50 g/ha, 24 h): E (A percentage control of from 1 to 19 is indicated by the letter E) | percentage control ([3]; 50 g/ha, 48 h): E (A percentage control of from 1 to 19 is indicated by the letter E) | percentage control ([3]; 100 g/ha, 24 h): E (A percentage control of from 1 to 19 is indicated by the letter E) | percentage control ([3]; 100 g/ha, 48 h): E (A percentage control of from 1 to 19 is indicated by the letter E) | percentage control ([3]; 200 g/ha, 24 h): E (A percentage control of from 1 to 19 is indicated by the letter E) | percentage control ([3]; 200 g/ha, 48 h): E (A percentage control of from 1 to 19 is indicated by the letter E) | percentage control (aphids, Myzus persicae; 12.5 g/ha, 24 h): C (A percentage control of from 40 to 59 is indicated by the letter C) | percentage control (aphids, Myzus persicae; 12.5 g/ha, 48 h): B (A percentage control of from 60 to 79 is indicated by the letter B) | percentage control (aphids, Myzus persicae; 25 g/ha, 24 h): E (A percentage control of from 1 to 19 is indicated by the letter E) | percentage control (aphids, Myzus persicae; 25 g/ha, 48 h): B (A percentage control of from 60 to 79 is indicated by the letter B) | percentage control (aphids, Myzus persicae; 50 g/ha, 24 h): D (A percentage control of from 20 to 39 is indicated by the letter D) | percentage control (aphids, Myzus persicae; 50 g/ha, 48 h): B (A percentage control of from 60 to 79 is indicated by the letter B) | percentage control (aphids, Myzus persicae; 100 g/ha, 24 h): A (A percentage control of from 80 to 100 is indicated by the letter A) | percentage control (aphids, Myzus persicae; 100 g/ha, 48 h): A (A percentage control of from 80 to 100 is indicated by the letter A) | percentage control (aphids, Myzus persicae; 200 g/ha, 24 h): B (A percentage control of from 60 to 79 is indicated by the letter B) | percentage control (aphids, Myzus persicae; 200 g/ha, 48 h): A (A percentage control of from 80 to 100 is indicated by the letter A) | percentage control (Tomato moths [4]; 12.5 g/ha, 24 h): 0% | percentage control (Tomato moths [4]; 25 g/ha, 24 h): E (A percentage control of from 1 to 19 is indicated by the letter E) | percentage control (Tomato moths [4]; 25 g/ha, 48 h): E (A percentage control of from 1 to 19 is indicated by the letter E) | percentage control (Tomato moths [4]; 50 g/ha, 24 h): 0% | percentage control (Tomato moths [4]; 50 g/ha, 48 h): E (A percentage control of from 1 to 19 is indicated by the letter E) | percentage control (Tomato moths [4]; 100 g/ha, 48 h): E (A percentage control of from 1 to 19 is indicated by the letter E) | percentage control (Tomato moths [4]; 200 g/ha, 24 h): E (A percentage control of from 1 to 19 is indicated by the letter E) | percentage control (Tomato moths [4]; 200 g/ha, 48 h): E (A percentage control of from 1 to 19 is indicated by the letter E)

From US20160212997A1, “AGRICULTURAL CHEMICALS” (REDAG CROP PROTECTION LTD, priority 2013, published 2016)
